This is an account of results in patent US20080064663A1, “Melt processing of phosphoroamido(di)thioate insecticides” (priority 2006, published 2008).

A short description of the series: Processing of acephate melt in oxygen free atmosphere: degradation. In kind it is physicochemical. As for the experimental part:
In some embodiments, the acephate-containing composition can be processed for more than 30 minutes without substantially any detectable degradation.

Molecules are shown by their SMILES.

As for `COP(=O)(NC(C)=O)SC` (centres unmarked) [acephate], the “reduction of the acephate stability during storage” value (after processing in molten state at 90° C. to 100° C. for 15 to 30 minutes under an effectively oxygen free atmosphere) is “without any reduction”. The “degradation of the acephate processed in a molten state” value (molten state at 90° C. to 100° C. for 15 minutes to 30 minutes under an effectively oxygen free atmosphere) is “without substantial or detectable degradation”.
